Laboratory results from publication PMC7615311 (Science (New York, N.Y.), 2023).

Experiments:
BT-474 = assay: growth reduction, BT-474; format: cell-based; details: Homo sapiens, BT-474, read-out: reduced growth
SK-BR-3 = assay: growth reduction, SK-BR-3; format: cell-based; details: Homo sapiens, SK-BR-3, read-out: reduced growth
MDA-MB-175 = assay: growth reduction, MDA-MB-175; format: cell-based; details: Homo sapiens, read-out: reduced growth
BT-474 cells = assay: decryptM phosphoproteome profiling in BT-474 cells; format: cell-based, human
SK-BR-3 cells = assay: decryptM phosphoproteome profiling in SK-BR-3 cells; format: cell-based, human
MDA-MB-175 cells = assay: decryptM phosphoproteome profiling in MDA-MB-175 cells; format: cell-based, human
SHC1 = assay: decryptM, pY427 on SHC1 in SK-BR-3 cells; format: cell-based; details: Homo sapiens, SK-BR-3, read-out: potency of inhibition of pY427 on SHC1
AKT1S1 = assay: decryptM, pT246 on AKT1S1 in SK-BR-3 cells; format: cell-based; details: Homo sapiens, SK-BR-3, read-out: potency of inhibition of pT246 on AKT1S1
[1] = system: K562 chronic myelogenous leukemia cells; assay: decryptM phosphoproteome profiling in K562 cells; format: cell-based, human; details: for number of regulated phosphopeptides: K562, 30 min drug treatment
HeLa cells [2] = assay: decryptM protein acetylation profiling in HeLa cells; format: cell-based, human
cortactin (CTTN) = assay: decryptM, acetylation of HDAC6 substrate cortactin in HeLa cells; format: cell-based, human; details: within the tested dose range
A549 lung cancer cells = assay: decryptM phosphoproteome profiling in A549 cells; format: cell-based, human
SU-DHL-4 cells [3] = format: cell-based, human; details: SU-DHL-4, live cell imaging
SU-DHL-4 cells [4] = assay: FACS analysis of cytotoxicity; format: cell-based, human; details: SU-DHL-4, FACS
HeLa cells [5] = assay: decryptM phosphoproteome profiling in HeLa cells; format: cell-based, human
CBP and p300 = assay: decryptM; format: cell-based, human; details: read-out: EC50 of inhibition of (auto-)acetylation sites on CBP and p300; HeLa
SNRNP40 = assay: decryptM, acetylation of SNRNP40 in HeLa cells; format: cell-based, human; details: read-out: EC50 of SNRNP40 acetylation site
ATR = ATR (Homo sapiens, UniProt Q13535); assay: Kinobeads assay, ATR; format: binding
[6] = system: KYSE-520 esophageal squamous cell carcinoma cell line; assay: decryptM phosphoproteome profiling in KYSE-520 cells; format: cell-based, human; details: KYSE-520, 30 min
[7] = system: SU-DHL-4 (B-cell lymphoma); assay: viability assay, SU-DHL-4; format: cell-based, human
[8] = system: Ramos (Burkitt's Lymphoma); assay: viability assay, Ramos; format: cell-based, human
[9] = system: ARH-77 plasma leukemia line; assay: viability assay, ARH-77; format: cell-based, human
SU-DHL-4 cells [10] = assay: two-dimensional decryptM phosphoproteome analysis in SU-DHL-4; format: cell-based, human; details: dose-response at eight time points between 0 min and 24 h
Ramos cells = assay: two-dimensional decryptM phosphoproteome analysis in Ramos; format: cell-based, human; details: dose-response at eight time points between 0 min and 24 h
ARH-77 cells = assay: two-dimensional decryptM phosphoproteome analysis in ARH-77; format: cell-based, human; details: dose-response at eight time points between 0 min and 24 h
MKI67 = assay: decryptM, phosphorylation of MKI67 in SU-DHL-4; format: cell-based, human
SYK = assay: decryptM, phosphorylation of SYK in SU-DHL-4; format: cell-based, human
RFTN1 = assay: decryptM, RFTN1 phosphorylation at S467 in SU-DHL-4; format: cell-based, human

Sequence of ATR (Q13535 whole entry): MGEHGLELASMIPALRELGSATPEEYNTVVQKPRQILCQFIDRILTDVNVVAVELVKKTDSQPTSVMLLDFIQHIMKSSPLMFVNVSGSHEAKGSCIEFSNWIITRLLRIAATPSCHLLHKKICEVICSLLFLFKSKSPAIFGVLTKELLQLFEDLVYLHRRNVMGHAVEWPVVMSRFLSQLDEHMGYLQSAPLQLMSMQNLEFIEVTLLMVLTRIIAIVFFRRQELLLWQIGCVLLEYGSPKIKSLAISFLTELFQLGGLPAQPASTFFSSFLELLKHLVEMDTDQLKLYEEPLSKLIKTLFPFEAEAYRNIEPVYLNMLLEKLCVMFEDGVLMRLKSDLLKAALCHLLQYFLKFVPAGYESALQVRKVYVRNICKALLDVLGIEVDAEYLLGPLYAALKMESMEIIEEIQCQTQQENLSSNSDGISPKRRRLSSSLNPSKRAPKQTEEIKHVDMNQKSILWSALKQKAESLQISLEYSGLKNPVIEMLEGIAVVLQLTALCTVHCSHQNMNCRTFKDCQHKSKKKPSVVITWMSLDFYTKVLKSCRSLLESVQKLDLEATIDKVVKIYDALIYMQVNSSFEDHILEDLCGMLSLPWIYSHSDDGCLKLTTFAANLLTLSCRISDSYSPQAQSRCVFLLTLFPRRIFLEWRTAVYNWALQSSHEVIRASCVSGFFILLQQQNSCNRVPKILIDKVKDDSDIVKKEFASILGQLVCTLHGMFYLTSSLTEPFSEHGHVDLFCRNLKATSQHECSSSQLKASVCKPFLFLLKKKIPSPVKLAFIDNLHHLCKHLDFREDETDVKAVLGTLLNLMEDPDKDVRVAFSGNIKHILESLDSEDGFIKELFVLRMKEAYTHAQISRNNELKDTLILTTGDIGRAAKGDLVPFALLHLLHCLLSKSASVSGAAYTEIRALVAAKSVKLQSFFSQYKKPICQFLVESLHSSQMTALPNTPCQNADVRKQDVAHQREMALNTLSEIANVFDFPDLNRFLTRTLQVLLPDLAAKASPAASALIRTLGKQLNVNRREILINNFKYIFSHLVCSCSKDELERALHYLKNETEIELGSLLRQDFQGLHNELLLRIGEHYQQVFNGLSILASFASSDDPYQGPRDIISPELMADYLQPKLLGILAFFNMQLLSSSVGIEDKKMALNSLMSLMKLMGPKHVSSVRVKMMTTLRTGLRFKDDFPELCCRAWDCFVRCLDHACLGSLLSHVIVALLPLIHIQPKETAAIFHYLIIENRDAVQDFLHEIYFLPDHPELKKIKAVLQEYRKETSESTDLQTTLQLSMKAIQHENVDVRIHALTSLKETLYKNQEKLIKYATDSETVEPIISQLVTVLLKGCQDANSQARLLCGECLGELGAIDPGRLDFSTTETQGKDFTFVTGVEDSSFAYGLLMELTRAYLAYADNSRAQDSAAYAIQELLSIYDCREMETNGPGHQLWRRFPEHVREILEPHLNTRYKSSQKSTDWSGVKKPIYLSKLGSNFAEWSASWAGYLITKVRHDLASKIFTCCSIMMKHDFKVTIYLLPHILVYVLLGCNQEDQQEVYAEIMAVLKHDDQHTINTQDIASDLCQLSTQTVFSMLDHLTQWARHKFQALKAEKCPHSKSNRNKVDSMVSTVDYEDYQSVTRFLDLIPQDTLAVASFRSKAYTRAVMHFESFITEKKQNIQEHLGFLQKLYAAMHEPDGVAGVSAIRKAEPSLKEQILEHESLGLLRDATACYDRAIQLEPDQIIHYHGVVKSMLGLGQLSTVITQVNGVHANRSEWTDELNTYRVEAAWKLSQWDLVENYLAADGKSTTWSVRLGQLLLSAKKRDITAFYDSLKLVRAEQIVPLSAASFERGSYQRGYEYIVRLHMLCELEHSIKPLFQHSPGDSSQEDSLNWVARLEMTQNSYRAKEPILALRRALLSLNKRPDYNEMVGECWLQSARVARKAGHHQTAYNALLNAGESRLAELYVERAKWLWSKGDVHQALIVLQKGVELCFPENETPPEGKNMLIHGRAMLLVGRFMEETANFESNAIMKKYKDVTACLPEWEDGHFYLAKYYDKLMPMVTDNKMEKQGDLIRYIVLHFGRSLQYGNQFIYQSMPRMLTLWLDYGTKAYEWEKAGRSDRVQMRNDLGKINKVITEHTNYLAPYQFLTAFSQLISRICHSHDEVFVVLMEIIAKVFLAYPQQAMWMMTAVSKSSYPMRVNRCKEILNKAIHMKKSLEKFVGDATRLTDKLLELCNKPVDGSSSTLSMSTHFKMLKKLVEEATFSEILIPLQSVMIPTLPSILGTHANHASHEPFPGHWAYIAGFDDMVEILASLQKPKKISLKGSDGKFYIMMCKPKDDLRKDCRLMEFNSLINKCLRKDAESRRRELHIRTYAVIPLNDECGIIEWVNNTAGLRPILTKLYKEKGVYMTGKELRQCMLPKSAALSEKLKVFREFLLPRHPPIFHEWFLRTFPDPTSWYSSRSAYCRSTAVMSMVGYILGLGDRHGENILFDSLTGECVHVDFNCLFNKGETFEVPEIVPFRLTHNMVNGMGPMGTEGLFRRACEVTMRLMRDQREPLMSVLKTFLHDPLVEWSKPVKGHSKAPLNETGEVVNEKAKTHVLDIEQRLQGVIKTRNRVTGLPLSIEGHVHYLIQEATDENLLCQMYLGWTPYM

## CS(=O)(=O)CCNCc1ccc(-c2ccc3ncnc(Nc4ccc(OCc5cccc(F)c5)c(Cl)c4)c3c2)o1 [Lapatinib]
BT-474
  EC50: 158 nM
SK-BR-3
  EC50: 234 nM
MDA-MB-175
  EC50: 695 nM
BT-474 cells
  number of regulated phosphopeptides: hundreds
SK-BR-3 cells
  number of regulated phosphopeptides: five
MDA-MB-175 cells
  number of regulated phosphopeptides: hundreds
SHC1
  EC50: 18 nM
AKT1S1
  EC50: 11 nM

## Nc1ccn([C@@H]2O[C@H](CO)[C@@H](O)[C@@H]2O)c(=O)n1 [cytarabine]
[1]; Homo sapiens, K562, 0.5 h, read-out: EC50 of potently regulated phosphopeptides
  EC50: < 100 nM
[1]
  number of regulated phosphopeptides: 23

## C#Cc1cccc(Nc2ncnc3cc(OC)c(OCCCCCCC(=O)NO)cc23)c1 [CUDC-101]
HeLa cells [2]; acetylated vs phosphorylated peptides
  higher affinity for HDAC targets than for kinase targets in cells: 100 fold
HeLa cells [2]; of the 1,133 measured acetylated peptides
  number of upregulated acetylated peptides: 139
Cortactin (CTTN)
  effect on CTTN acetylation: only at substantially higher concentrations

## CN[C@@H]1C[C@H]2O[C@@](C)([C@@H]1OC)n1c3ccccc3c3c4c(c5c6ccccc6n2c5c31)C(=O)NC4 [staurosporine]
A549 lung cancer cells
  number of regulated phosphopeptides: ~2500

## COc1cc(Nc2ncc(F)c(Nc3ccc4c(n3)N(COP(=O)(O)O)C(=O)C(C)(C)O4)n2)cc(OC)c1OC [fostamatinib]
SU-DHL-4 cells [3]
  effect of inhibitor pre-treatment on RTX-mediated cytotoxicity: clear reduction of RTX-mediated cytotoxicity
SU-DHL-4 cells [4]
  effect of combination on cytotoxic effect of RTX: diminished the cytotoxic effect of RTX

## C/C=C1\NC(=O)[C@H]2CSSCC/C=C/[C@H](CC(=O)N[C@H](C(C)C)C(=O)N2)OC(=O)[C@H](C(C)C)NC1=O [romidepsin]
HeLa cells [5]; after 16 hours
  response of the phosphoproteome: broad and potent response
Cortactin (CTTN)
  effect on CTTN acetylation: no effect

## CNC(=O)Nc1ccc2c(c1)CC[C@@]21OC(=O)N(CC(=O)N(Cc2ccc(F)cc2)[C@@H](C)C(F)(F)F)C1=O [A485]
HeLa cells [2]
  number of downregulated acetylated peptides: 59
HeLa cells [5]
  impact on the phosphoproteome: did not have much impact
CBP and p300
  EC50: 50 to 200 nM
SNRNP40
  EC50: 50 nM

## Cn1cnc2c(F)c(Nc3ccc(Br)cc3Cl)c(C(=O)NOCCO)cc21 [selumetinib]
A549 lung cancer cells
  ERK phosphorylation: abrogated ERK phosphorylation
  phosphorylation of the AKT substrate BAD at S99: induced phosphorylation

## Cn1c(=O)n(-c2ccc(C(C)(C)C#N)cc2)c2c3cc(-c4cnc5ccccc5c4)ccc3ncc21 [Dactolisib]
ATR
  Kd: 91 nM

## CC1(N)CCN(c2cnc(-c3cccc(Cl)c3Cl)c(N)n2)CC1 [SHP099]
[6]
  phosphorylation of the EGFR substrate GAB1: diminished in a dose-dependent fashion
  phosphorylation sites indicating EGFR activity: does not inhibit

## O=C1/C(=C/c2ccccc2)C(NC2CCCCC2)c2ccccc21 (stereo not shown) [BCI]
SU-DHL-4 cells [4]
  cell killing by the drug alone: effective in killing cells

## CC(=O)Nc1cccc(-n2c(=O)n(C3CC3)c(=O)c3c(Nc4ccc(I)cc4F)n(C)c(=O)c(C)c32)c1 [trametinib]
SU-DHL-4 cells [3]
  effect of inhibitor pre-treatment on RTX-mediated cytotoxicity: clear reduction of RTX-mediated cytotoxicity

## RTX: antibody for treatment of B-cell malignancies targeting MS4A1 (CD20)
[7]
  sensitivity in viability assay: sensitive
[8]
  sensitivity in viability assay: sensitive
[9]
  sensitivity in viability assay: insensitive
SU-DHL-4 cells [10]
  phosphoproteome response: massive responses
Ramos cells
  phosphoproteome response: massive responses
ARH-77 cells
  phosphoproteome response: silent
MKI67
  downregulation of phosphorylation on the proliferation marker MKI67: > 10 x
SYK
  upregulation of phosphorylation of SYK: > 10 fold
RFTN1; SU-DHL-4, within 2 min
  increase of RFTN1 phosphorylation at S467: 10 fold
RFTN1; SU-DHL-4, within 5 min
  increase of RFTN1 phosphorylation at S467: 30 fold

## CC(=O)O[C@H]1C(=O)[C@@]2(C)[C@H]([C@H](OC(=O)c3ccccc3)[C@]3(O)C[C@H](OC(=O)[C@H](O)[C@@H](NC(=O)c4ccccc4)c4ccccc4)C(C)=C1C3(C)C)[C@]1(OC(C)=O)CO[C@@H]1C[C@@H]2O [paclitaxel]
[1]
  number of regulated phosphopeptides: 7

## NC1(c2ccc(-c3nc4ccn5c(=O)[nH]nc5c4cc3-c3ccccc3)cc2)CCC1 [MK-2206]
A549 lung cancer cells
  ERK1 activity via phosphorylation at Y187: induced ERK1 activity
  phosphorylation of the AKT substrates AKT1S1 (T2469) and GSK3B (S9): reduced phosphorylation

## O=C(CCCCCCC(=O)Nc1ccccc1)NO [vorinostat]
HeLa cells [5]; within 4 hours
  effect on protein phosphorylation: no noticeable effect

## pertuzumab: breast cancer therapeutic antibody blocking signaling by preventing HER2-HER3 dimerization
BT-474 cells
  number of regulated phosphopeptides: ~ 150
SK-BR-3 cells
  number of regulated phosphopeptides: ~ 30
MDA-MB-175 cells
  number of regulated phosphopeptides: ~ 150
